Series [1] is described as follows: Dog intravenous pharmacokinetic study. Particulars: male, beagle, IV dose of 1 mg/kg, plasma, read-out: Dog t1/2 (converted). It is filed as in vivo, Male beagle dogs. As for the experimental part:
The pharmacokinetic studies in dog were conducted at Pfizer Global Research and Development (Groton, Conn.). All in vivo studies were conducted in accordance with regulations and established guidelines using protocols reviewed and approved by the Pfizer Worldwide Research and Development (WRD, or other) Institutional Animal Care and Use Committee.
Male beagle dogs were fasted overnight with water provided ad libitium. The dogs were fed at approximately 2-4 h post-dose. The dogs (n=2) were administered an IV bolus via the cephalic vein. Compounds of Examples 1-3 were tested along with the following four comparative compounds.
All test compounds were administered an IV dose of 1 mg/kg of the specified compound which was delivered in a dose volume of 0.5 mL/kg. The dose solution was formulated in 10% PEG400/90% of 23% (w/v) HPBCD in de-ionized water for the following test compounds: Example 1, Example 2, and Example 3; in 20% SBECD (sulfobutyl either β-cyclodextrin) for Comparative-Compound 3; in 23% (w/v) HPBCD (hydroxypropyl β-cyclodextrin) in water for Comparative Compound 2; in 12.5.% SBECD in water with 0.25% 0.1N HCl to pH 5 for Comparative Compound 1. Serial blood samples were collected from each dog via the jugular vein prior to dose administration and at the following time points post-dose: 0.083, 0.25, 0.5, 1, 2, 4, 7, and 24 h for all compounds with an additional time point of 0.016 h collected for Comparative Compound 1 only. Blood samples were collected into tubes containing EDTA and placed on wet ice. Following centrifugation to afford plasma, the samples were transferred to polypropylene tubes and stored frozen at −20° C. to −80° C. until analysis.
All plasma samples were quantified via liquid chromatography/tandem mass spectrometry (LC/MS-MS) using multiple reaction monitoring with non-validated methods. The plasma standard curves were generated with species specific plasma. Pharmacokinetic parameters were determined by non-compartmental analysis using Watson LIMS software version 7.4 (Thermo Fisher Scientific, Waltham, Mass.). The area under the concentration versus time curve (AUC) was calculated from the first time point to the last time point with measurable drug concentration using a linear trapezoidal rule. The area under the concentration versus time curve from the first time point to time infinity (AUC(0-inf)) was calculated by extrapolation from the time point where the last measurable concentration occurred to time infinity by dividing the observed concentration at the last time point by the elimination rate constant determined using linear regression of plasma concentration versus time data. The plasma clearance (CLp) was calculated by the equation CLp=dose/AUC(0-inf). The elimination half-life (t½) was calculated using the following equation t1/2=ln 2/k; k is equal to the rate constant of elimination calculated by the least squares of the log transformed data.

A short description of series [2]: In vitro intrinsic clearance in human hepatocytes. It is filed as in vitro ADME. The note with it: 1 μM substrate, human hepatocytes 0.5 million viable cells per mL, 37° C. As for the experimental part:
Test Compounds (Example 1-3 and Comparative-Compounds 1-4) were prepared as solutions in DMSO at 3 mM which were then diluted in media containing WEM. The final concentration of DMSO in the incubation was 0.03% (v/v). The in vitro half-life (t½) of each compound was determined in incubations containing substrate (1 μM), human hepatocytes (0.5 million viable cells per mL final concentration) in media containing WEM, 50 mM HEPES buffer (pH 7.4), and 26 mM sodium bicarbonate at 37° C. (all final concentrations) in a 96-well plate. The reaction mixture was pre-warmed at 37° C. for 30 min prior to the initiation of the incubation. The incubation was quenched with acetonitrile containing internal standards at the following time points: 0, 5, 15, 30, 60, 120, and 240 min (individual incubation plates per time point). The samples were vortexed followed by centrifugation. An aliquot of supernatant was transferred to a clean 96-well plate and analyzed by LC/MS-MS using multiple reaction monitoring. For control experiments, hepatocytes were omitted from the incubations.
The hepatocyte t½ (min) was obtained from a log-linear plot of the substrate depletion versus incubation time and was scaled to hepatic intrinsic clearance (CLint,app (μL/min/million cells) using the following equation: […]

The nature of series [3]: In vitro intrinsic clearance in human liver microsomes (HLM). Type of series: in vitro ADME. Particulars: pH 7.4, 1 μM substrate, NADPH, 37° C., read-out: HLM CLint, app. The procedure: Test Compounds (Example 1-3 and Comparative-Compounds 1-4) were prepared as solutions in DMSO. The final concentration of DMSO in the incubation was <0.1% (v/v). […] (all final concentrations) in a 384-well plate. The reaction mixture was pre-warmed at 37° C. for 10 min prior to initiation of the incubation. The incubation was quenched with acetonitrile containing internal standards at the following time points: 1, 4, 7, 12, 20, 25, 45, and 60 min (individual incubation plates per time point) with a subsequent addition of water. The samples were vortexed followed by centrifugation and the supernatant was analyzed by LC/MS-MS using multiple reaction monitoring. For control experiments, NADPH was omitted from the incubations.
The microsomal t½ (min) was obtained from a log-linear plot of the substrate depletion versus incubation time and was scaled to hepatic intrinsic clearance (CLint,app (μL/min/mg protein) using the following equation: […]
Background: Liver microsomes are vesicles of endoplasmic reticulum, rich in cytochrome P450 enzymes.

A short description of series [4]: Mouse subcutaneous neuropharmacokinetics study. Type of series: in vivo, Male C57Bl6 mice. Particulars: male, C57Bl6, mouse, brain (cerebellum homogenate) and plasma, sc, subcutaneous dose of 1 mg/kg, read-out: Mouse Cb,u/Cp,u. The procedure: The neuropharmacokinetics studies in mouse were conducted at Wuxi (Shanghai, China) with bioanalysis conducted at BioDuro (Beijing, China) with the exception of the Comparative-compound 3, which bioanalysis was conducted at Wuxi. All in vivo studies were conducted in accordance with regulations and established guidelines using protocols reviewed and approved by the Pfizer Worldwide Research and Development (WRD, or other) Institutional Animal Care and Use Committee.
Male C57Bl6 mice were maintained on a 12-h light/dark cycle in a temperature- and humidity-controlled environment with free access to food and water. The test compounds (Examples 1 and 2 and Comparative Compounds 1-3) were administered as a subcutaneous dose of 1 mg/kg which was delivered in a dose volume of 10 mL/kg. The dose solution for all compounds was formulated in 5% DMSO/5% cremophor/90% saline. Blood and brain samples were collected at 0.5, 1, 2, 4, 8, 12, and 24 h post-dose (n=3 per time point). Blood samples were collected into tubes containing sodium fluoride and 4-(2-aminoethyl)benzenesulfonyl fluoride hydrochloride (AEBSF; final concentration 2 mg/mL) to inhibit hydrolase activity and placed on wet ice. Following centrifugation to afford plasma, the samples were transferred to polypropylene tubes and stored frozen at −20° C. to −80° C. until analysis. Immediately following blood collection the mice were euthanized by cervical dislocation and the brains were removed. The cerebellum was immediately frozen in liquid nitrogen and stored at −80° C. until analysis.
Cerebellum samples were thawed, diluted 1:4 (w/v) with water, and homogenized using an H-speed dispersator. Standards and controls were prepared in a similar manner using a brain homogenate prepared from untreated animals. The plasma standard curves were generated with species specific plasma. All plasma and brain homogenate samples were quantified via LC/MS-MS using multiple reaction monitoring with non-validated methods.
Equilibrium dialysis using standard procedures [See Di et al., “Species independence in brain tissue binding using brain homogenates”; Drug Metab Dispos 39:1270-1277, 2011) were used for determination of the unbound fraction of the test compounds (Examples 1 and 2 and Comparative Compounds 1-3) in mouse plasma (fu,p; see Di et al., “impact of recovery on fraction unbound using equilibrium dialysis”; J Pharm Sci 101:1327-1335, 2012) and unbound fraction in rat brain homogenate (fu,b; see Di et al., “Species independence in brain tissue binding using brain homogenates”; Drug Metab Dispos 39:1270-1277, 2011). The determination of the unbound fraction in plasma also included the addition of AEBSF at a final concentration of 2 mg/mL to the incubation.
The pharmacokinetic parameters were computed by non-compartmental analysis using Watson Bioanalytical LIMS version 7.5. The AUC values were calculated using the linear trapezoidal method for both brain and plasma. Measured total plasma (Cp) and brain (Cb; assuming brain tissue density of 1 g/mL) concentrations were converted to unbound (free) values using the matrix specific binding factor (fu, p or fu,b) to determine free plasma (Cp,u) and free brain (Cb,u) values. All neurocompartmental ratios (Cb,u/Cp,u) were calculated through use of AUC values with the exception of Comparative Compounds 1 and 2 which used the mean of individual animal values due to insufficient data to calculate an AUC value.

For `CN([C@H]1COC2(CCN(C(=O)O[C@H](CO)C(F)(F)F)CC2)C1)S(=O)(=O)CC1CC1` [Comparative-Compound 1, (2R)-1,1,1-trifluoro-3-hydroxypropan-2-yl (3R)-3-{[(cyclopropylmethyl)sulfonyl](methyl)amino}-1-oxa-8-azaspiro[4.5]decane-8-carboxylate], in series [1], the half-life is 0.5 h. Moreover, the “HHEPs CLint, app” value in series [2] was found to be 5.5 μL/min/million. Further, in series [3], the microsomal CLint at 1 μM was less than 12.5 µL/min/mg. Also, in series [4], the Kp,uu (unbound brain/unbound plasma ratio) is 0.18.
As for `CN([C@H]1COC2(CCN(C(=O)O[C@H](CO)C(F)(F)F)CC2)C1)S(=O)(=O)C1CC1` [Comparative-Compound 2, (2R)-1,1,1-trifluoro-3-hydroxypropan-2-yl (3R)-3-[(cyclopropylsulfonyl)-(methyl)amino]-1-oxa-8-azaspiro[4.5]decane-8-carboxylate], in series [1], the half-life was 1.31 h. Moreover, the “HHEPs CLint, app” value in series [2] is recorded as less than 3.52 μL/min/million. Moreover, the microsomal CLint at 1 μM in series [3] was less than 8 µL/min/mg. Further, the Kp,uu (unbound brain/unbound plasma ratio) in series [4] came out at 0.29.
On to `CN([C@H]1COC2(CCN(C(=O)O[C@H](CO)C(F)(F)F)CC2)C1)S(=O)(=O)c1ccccc1` [Comparative-Compound 3, (2R)-1,1,1-trifluoro-3-hydroxypropan-2-yl (3R)-3-[methyl(phenylsulfonyl)-amino]-1-oxa-8-azaspiro[4.5]decane-8-carboxylate], for which the half-life in series [1] is 5 h. Also, the “HHEPs CLint, app” value in series [2] stood at 10.6 μL/min/million. Also, the microsomal CLint at 1 μM in series [3] is 14.8 µL/min/mg. Moreover, the Kp,uu (unbound brain/unbound plasma ratio) in series [4] was 0.51.

Values taken from patent publication US20210309669A1, “Heterocyclic Spiro Compounds As MAGL Inhibitors” (Pfizer Inc., priority 2018, published 2021).
